Tests used:
[1] = target: Hepatocyte growth factor receptor (Homo sapiens, UniProt P08581); assay: Human Met Kinase Assay
Method: Example D-1: Human Met (residues R974-S1390 with A1209G and V1290L, 3.4 nM) was incubated with 8 mM MOPS pH 7.0, 0.2 mM EDTA, 250 µM […] (SEQ ID NO:3), 1 mM sodium orthovanadate, 5 mM […], 10 mM magnesium acetate, and 10 μM [γ-33P-ATP]. The reaction was initiated by the addition of the Mg/ATP mix. After incubation for 40 minutes at room temperature, the reaction was stopped by the addition of phosphoric acid to a concentration of 0.5%. A reaction aliquot of 10 μL was then spotted onto a P30 filtermat and washed four times for 4 minutes in 0.425% phosphoric acid and once in methanol prior to drying and scintillation counting. Incorporated 33P was measured using the Wallac Microbeta scintillation counter (Perkin Elmer).Example D-2: Human MET (residues 956-1390; CarnaBio, 0.1 ng/well) was also incubated with enzymatic buffer (Cisbio) supplemented with 5 mM MgCl2, 1 mM DTT and 1 mM MnCl2. The mixture was added to the pre-plated compounds. […] The reaction was incubated at room temperature for 40 min and stopped upon the addition of SA-XL665 and TK-antibody both diluted in EDTA-containing kinase detection buffer (Cisbio). The kinase activity was calculated as stated above and the IC50 values were reported.

[2] = target: Vascular endothelial growth factor receptor 2 (Homo sapiens, UniProt P35968); assay: Human KDR Kinase Assay
Method: Example B-1: Human KDR (residues K790-V1356, 55 nM) was incubated with 8 mM MOPS pH 7.0, 0.2 mM EDTA, 0.33 mg/mL myelin basic protein, 10 mM magnesium acetate, and 10 μM [γ-33P-ATP]. The reaction was initiated by the addition of the Mg/ATP mix. After incubation for 40 minutes at room temperature, the reaction was stopped by the addition of phosphoric acid to a concentration of 0.5%. A reaction aliquot of 10 μL was then spotted onto a P30 filtermat and washed four times for 4 minutes in 0.425% phosphoric acid and once in methanol prior to drying and scintillation counting. Incorporated 33P was measured using the Wallac Microbeta scintillation counter (Perkin Elmer).Example B-2: Human KDR (residues 790-1356; CarnaBio, 0.1 ng/well) was also incubated with enzymatic buffer (Cisbio) supplemented with 5 mM MgCl2, 1 mM MnCl2, and 1 mM DTT. The mixture was added to the pre-plated compounds. The reaction was initiated upon addition of ATP at Km (4.0 μM). The reaction was incubated at room temperature for 40 min and stopped upon the addition of SA-XL665 and TK-antibody both diluted in EDTA-containing kinase detection buffer (Cisbio). The kinase activity was calculated as stated above and the IC50 values were reported.

[3] = target: T1, Tyrosine-protein kinase Mer (Homo sapiens, UniProt Q12866); assay: Human Mer Kinase Assay
T1 sequence (Q12866 whole entry): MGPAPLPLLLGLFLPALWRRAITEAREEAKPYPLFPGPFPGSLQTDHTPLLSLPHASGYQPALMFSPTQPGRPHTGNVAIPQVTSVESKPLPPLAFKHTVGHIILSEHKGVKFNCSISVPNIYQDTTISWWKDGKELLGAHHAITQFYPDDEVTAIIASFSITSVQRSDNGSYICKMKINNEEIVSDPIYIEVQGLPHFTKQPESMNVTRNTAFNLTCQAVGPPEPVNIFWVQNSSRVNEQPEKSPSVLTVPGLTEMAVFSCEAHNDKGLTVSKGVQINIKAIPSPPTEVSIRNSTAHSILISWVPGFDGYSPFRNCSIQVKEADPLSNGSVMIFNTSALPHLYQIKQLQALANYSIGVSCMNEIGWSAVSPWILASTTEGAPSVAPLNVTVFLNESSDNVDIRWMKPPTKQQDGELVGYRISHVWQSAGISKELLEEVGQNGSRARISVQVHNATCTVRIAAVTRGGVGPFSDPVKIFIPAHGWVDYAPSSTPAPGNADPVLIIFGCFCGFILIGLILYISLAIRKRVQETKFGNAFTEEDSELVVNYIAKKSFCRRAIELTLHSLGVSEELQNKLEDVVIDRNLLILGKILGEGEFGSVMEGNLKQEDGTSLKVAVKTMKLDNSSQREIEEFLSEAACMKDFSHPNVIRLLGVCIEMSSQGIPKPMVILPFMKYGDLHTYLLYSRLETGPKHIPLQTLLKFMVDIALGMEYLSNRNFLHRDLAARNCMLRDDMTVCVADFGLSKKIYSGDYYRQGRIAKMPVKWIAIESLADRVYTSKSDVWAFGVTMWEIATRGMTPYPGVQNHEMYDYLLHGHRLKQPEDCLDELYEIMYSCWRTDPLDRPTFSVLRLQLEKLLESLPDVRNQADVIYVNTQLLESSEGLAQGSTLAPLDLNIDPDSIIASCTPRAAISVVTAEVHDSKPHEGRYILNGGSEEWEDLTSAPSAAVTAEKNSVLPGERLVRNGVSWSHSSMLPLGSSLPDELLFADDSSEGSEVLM
Method: Example C-1: Human Mer (residues R557-E882 with H628Q and R794A, 0.7 nM) was incubated with 8 mM MOPS pH 7.0, 0.2 mM EDTA, 30 mM NaCl, 250 μM […] (SEQ ID NO:2), 10 mM magnesium acetate, and 10 μM [γ-33P-ATP]. The reaction was initiated by the addition of the Mg/ATP mix. After incubation for 40 minutes at room temperature, the reaction was stopped by the addition of phosphoric acid to a concentration of 0.5%. A reaction aliquot of 10 μL was then spotted onto a P30 filtermat and washed four times for 4 minutes in 0.425% phosphoric acid and once in methanol prior to drying and scintillation counting. Incorporated 33P was measured using the Wallac Microbeta scintillation counter (Perkin Elmer).Example C-2: Human MER (residues 528-999; CarnaBio, 1 ng/well) was also incubated with enzymatic buffer (Cisbio) supplemented with 5 mM MgCl2 and 1 mM DTT. The mixture was added to the pre-plated compounds. The reaction was initiated upon addition of ATP at Km (40 μM). The reaction was incubated at room temperature for 60 min and stopped upon the addition of SA-XL665 and TK-antibody both diluted in EDTA-containing kinase detection buffer (Cisbio). The kinase activity was calculated as stated above and the IC50 values were reported.

Measured: IC50

Sequence of Hepatocyte growth factor receptor (P08581 whole entry, the tested form may be a part): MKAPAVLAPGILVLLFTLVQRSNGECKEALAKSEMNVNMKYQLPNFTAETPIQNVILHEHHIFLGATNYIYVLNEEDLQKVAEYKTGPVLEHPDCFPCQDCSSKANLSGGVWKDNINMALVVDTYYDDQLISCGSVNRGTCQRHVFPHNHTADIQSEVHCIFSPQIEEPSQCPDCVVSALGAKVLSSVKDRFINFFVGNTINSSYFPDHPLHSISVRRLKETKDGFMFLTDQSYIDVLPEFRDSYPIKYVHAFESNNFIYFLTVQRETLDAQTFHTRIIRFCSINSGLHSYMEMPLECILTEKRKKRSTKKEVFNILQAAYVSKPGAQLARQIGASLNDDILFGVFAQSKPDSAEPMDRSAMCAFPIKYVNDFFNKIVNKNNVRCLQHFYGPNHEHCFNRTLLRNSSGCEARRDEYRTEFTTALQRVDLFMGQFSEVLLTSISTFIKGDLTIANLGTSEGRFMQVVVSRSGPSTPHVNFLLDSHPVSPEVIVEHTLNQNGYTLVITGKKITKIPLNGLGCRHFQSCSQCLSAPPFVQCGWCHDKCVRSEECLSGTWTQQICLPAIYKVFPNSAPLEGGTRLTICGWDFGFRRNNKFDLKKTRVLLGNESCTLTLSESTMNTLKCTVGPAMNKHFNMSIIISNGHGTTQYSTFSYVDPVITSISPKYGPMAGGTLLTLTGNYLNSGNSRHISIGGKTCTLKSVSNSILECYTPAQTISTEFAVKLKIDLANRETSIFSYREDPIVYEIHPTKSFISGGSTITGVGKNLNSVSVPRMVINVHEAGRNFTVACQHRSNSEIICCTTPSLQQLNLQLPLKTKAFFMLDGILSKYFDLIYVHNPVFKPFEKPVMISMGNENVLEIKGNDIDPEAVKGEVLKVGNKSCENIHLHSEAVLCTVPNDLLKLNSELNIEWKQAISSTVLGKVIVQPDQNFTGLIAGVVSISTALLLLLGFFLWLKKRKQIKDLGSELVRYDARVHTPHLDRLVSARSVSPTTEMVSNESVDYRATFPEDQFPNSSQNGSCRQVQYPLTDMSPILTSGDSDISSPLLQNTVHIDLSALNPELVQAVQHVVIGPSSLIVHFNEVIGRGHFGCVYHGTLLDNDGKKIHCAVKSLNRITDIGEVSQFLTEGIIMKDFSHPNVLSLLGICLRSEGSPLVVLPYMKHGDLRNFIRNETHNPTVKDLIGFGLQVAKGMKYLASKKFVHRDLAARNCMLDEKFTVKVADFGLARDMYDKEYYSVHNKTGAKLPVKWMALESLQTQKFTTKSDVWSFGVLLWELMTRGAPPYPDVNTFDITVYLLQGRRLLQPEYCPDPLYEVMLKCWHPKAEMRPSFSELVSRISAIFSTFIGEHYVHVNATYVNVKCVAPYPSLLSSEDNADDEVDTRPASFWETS
Sequence of Vascular endothelial growth factor receptor 2 (P35968 whole entry, the tested form may be a part): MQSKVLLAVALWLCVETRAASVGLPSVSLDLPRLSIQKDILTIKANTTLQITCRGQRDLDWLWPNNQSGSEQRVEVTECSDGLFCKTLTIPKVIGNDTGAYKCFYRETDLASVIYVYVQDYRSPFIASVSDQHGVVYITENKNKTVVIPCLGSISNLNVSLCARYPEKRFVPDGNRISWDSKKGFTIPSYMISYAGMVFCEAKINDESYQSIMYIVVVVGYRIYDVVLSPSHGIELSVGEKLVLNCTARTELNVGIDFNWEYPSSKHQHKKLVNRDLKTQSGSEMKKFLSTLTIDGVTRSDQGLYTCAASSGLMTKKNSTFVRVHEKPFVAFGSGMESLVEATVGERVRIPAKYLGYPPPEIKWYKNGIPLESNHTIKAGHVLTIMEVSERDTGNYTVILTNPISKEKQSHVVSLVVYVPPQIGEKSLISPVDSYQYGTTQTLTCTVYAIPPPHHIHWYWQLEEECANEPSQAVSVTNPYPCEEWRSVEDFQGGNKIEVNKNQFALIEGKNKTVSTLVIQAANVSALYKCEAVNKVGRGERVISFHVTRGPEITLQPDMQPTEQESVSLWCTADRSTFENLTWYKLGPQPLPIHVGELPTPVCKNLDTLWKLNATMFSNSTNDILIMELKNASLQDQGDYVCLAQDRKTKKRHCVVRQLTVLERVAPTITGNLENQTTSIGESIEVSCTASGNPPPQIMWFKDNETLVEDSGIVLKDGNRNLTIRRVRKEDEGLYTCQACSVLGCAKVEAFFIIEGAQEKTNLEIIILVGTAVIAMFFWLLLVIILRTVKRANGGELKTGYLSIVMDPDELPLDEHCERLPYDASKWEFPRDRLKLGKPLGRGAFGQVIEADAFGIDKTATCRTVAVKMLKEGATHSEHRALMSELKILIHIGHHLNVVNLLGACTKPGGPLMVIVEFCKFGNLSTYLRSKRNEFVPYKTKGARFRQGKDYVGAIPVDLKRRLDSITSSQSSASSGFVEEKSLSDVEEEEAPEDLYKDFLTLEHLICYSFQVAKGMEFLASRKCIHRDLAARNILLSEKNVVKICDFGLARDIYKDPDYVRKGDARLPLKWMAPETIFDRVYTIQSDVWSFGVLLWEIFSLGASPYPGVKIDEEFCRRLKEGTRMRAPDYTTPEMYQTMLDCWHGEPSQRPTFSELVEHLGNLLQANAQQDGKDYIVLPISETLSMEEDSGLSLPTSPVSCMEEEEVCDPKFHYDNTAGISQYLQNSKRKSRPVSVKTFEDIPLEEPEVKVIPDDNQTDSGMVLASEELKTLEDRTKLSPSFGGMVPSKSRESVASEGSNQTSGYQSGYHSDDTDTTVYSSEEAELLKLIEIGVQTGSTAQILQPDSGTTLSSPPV

COc1cc2nccc(Oc3ccc(NC(=O)C4C(=O)C(c5ccc(F)cc5)=C(C)N=C4C)cc3F)c2nc1OC (stereo unspecified) [US12371428, Compound 154]
< 100 nM: all assays above

COCCOc1ccc2nccc(Oc3ccc(NC(=O)C4=C(C)N=C(C)C(c5ccc(F)cc5)C4O)cc3F)c2n1 (stereo unspecified) [US12371428, Compound 349]
< 100 nM: all assays above
